Results taken from patent US20140193827A1 (TEVA PHARMACEUTICAL INDUSTRIES, LTD., priority 2013, published 2014).

Tested on: GA-primed murine splenocytes
Experiment: Tolerance method for assessing process variability

glatiramer acetate [GA]
AVG expression CYHR1 (probe ILMN_1228937): 8.14
AVG expression MSN (probe ILMN_1229193): 9.736
AVG expression OTTMUSG00000016644 (probe ILMN_1229197): 7.618
AVG expression ECM1 (probe ILMN_1229746): 6.806
AVG expression LTA (probe ILMN_1229804): 8.009
AVG expression ST7 (probe ILMN_1229827): 7.737
AVG expression FCRLA (probe ILMN_1229840): 9.907
AVG expression 4933437K13RIK (probe ILMN_1230045): 9.824
AVG expression TPI1 (probe ILMN_1230137): 12.52
AVG expression BATF2 (probe ILMN_1230143): 6.446
AVG expression CLIC4 (probe ILMN_1230546): 11.15
AVG expression GM336 (probe ILMN_1230605): 7.6587
AVG expression LOC270152 (probe ILMN_1231204): 8.329
AVG expression TPI1 (probe ILMN_1231447): 7.938
AVG expression CCL5 (probe ILMN_1231814): 8.662
AVG expression THADA (probe ILMN_1232235): 8.652
AVG expression ANK (probe ILMN_1232621): 7.123
AVG expression MAD (probe ILMN_1232668): 7.987
AVG expression GBP1 (probe ILMN_1233293): 11.66
AVG expression LOC100045981 (probe ILMN_1233402): 9.335
AVG expression IL2RA (probe ILMN_1233474): 8.134
AVG expression C530027B15R1K (probe ILMN_1233501): 8.684
AVG expression CD27 (probe ILMN_1233589): 8.296
AVG expression 1110014O20RIK (probe ILMN_1233987): 9.906
AVG expression PPP3CC (probe ILMN_1233999): 8.724
AVG expression SCL0002007.1_97 (probe ILMN_1234020): 8.904
AVG expression TMED8 (probe ILMN_1234054): 8.518
AVG expression IRGM1 (probe ILMN_1234539): 11.44
AVG expression TSPAN2 (probe ILMN_1234698): 7.426
AVG expression IGHA_J00475$V00785_IG_HEAVY—CONSTANT_ALPHA_135 (probe ILMN_1234706): 7.221
AVG expression AI790298 (probe ILMN_1234746): 6.873
AVG expression 4630004K05RIK (probe ILMN_1234973): 6.972
AVG expression PROS1 (probe ILMN_1235499): 8.935
AVG expression A630072M18RIK (probe ILMN_1235926): 8.781
AVG expression FCRLA (probe ILMN_1236111): 11.88
AVG expression RAB11FIP4 (probe ILMN_1236245): 6.42
AVG expression E130302P19RIK (probe ILMN_1236354): 7.244
AVG expression 5830496L11RIK (probe ILMN_1236507): 9.309
AVG expression CAR1 (probe ILMN_1236588): 9.793
AVG expression SLC25A19 (probe ILMN_1237074): 11.68
AVG expression DDX25 (probe ILMN_1237338): 6.532
AVG expression IL7R (probe ILMN_1237567): 6.244
AVG expression PFKP (probe ILMN_1237695): 10.66
AVG expression AMPD1 (probe ILMN_1237871): 6.446
AVG expression AREG (probe ILMN_1238547): 6.514
AVG expression C130086J11RIK (probe ILMN_1238725): 7.188
AVG expression KDH (probe ILMN_1239055): 7.064
AVG expression KLRE1 (probe ILMN_1239346): 6.805
AVG expression LOC100047934 (probe ILMN_1239397): 10.17
AVG expression 6430510M02RIK (probe ILMN_1239411): 8.536
AVG expression CEACAM2 (probe ILMN_1239472): 6.786
AVG expression NG23 (probe ILMN_1239632): 8.463
AVG expression KIF1B (probe ILMN_1239729): 7.517
AVG expression 6030400N17RIK (probe ILMN_1239797): 6.341
AVG expression PRSS34 (probe ILMN_1239878): 6.278
AVG expression ANXA3 (probe ILMN_1241171): 8.239
AVG expression ADRB2 (probe ILMN_1241610): 8.974
AVG expression TCF7 (probe ILMN_1242308): 8.261
AVG expression CREM (probe ILMN_1242622): 8.248
AVG expression AKAP8L (probe ILMN_1242769): 9.971
AVG expression D630014A15RIK (probe ILMN_1242794): 8.379
AVG expression A130010J15RIK (probe ILMN_1243150): 8.875
AVG expression 2810410A03RIK (probe ILMN_1243249): 10.13
AVG expression A130026C10RIK (probe ILMN_1243621): 9.03
AVG expression B230369L08RIK (probe ILMN_1244343): 9.9
AVG expression RASGRP2 (probe ILMN_1244516): 6.8
AVG expression LOC100044948 (probe ILMN_1244853): 11.36
AVG expression GBP5 (probe ILMN_1244866): 9.012
AVG expression SYNGR2 (probe ILMN_1244874): 10.87
AVG expression CST7 (probe ILMN_1244891): 7.709
AVG expression F730045P10RIK (probe ILMN_1245300): 7.742
AVG expression HHEX (probe ILMN_1245731): 9.543
AVG expression CD84 (probe ILMN_1245754): 6.93
AVG expression SIAT7C (probe ILMN_1246543): 8.379
AVG expression C78339 (probe ILMN_1246895): 9.914
AVG expression BC004728 (probe ILMN_1247198): 10.36
AVG expression LOC100046770 (probe ILMN_1247199): 8.329
AVG expression IL3 (probe ILMN_1247309): 9.384
AVG expression CGEF2-PENDING (probe ILMN_1247893): 8.11
AVG expression EMP3 (probe ILMN_1248028): 10.05
AVG expression FASL (probe ILMN_1248413): 6.78
AVG expression C330023M02RIK (probe ILMN_1248651): 8.865
AVG expression CD55 (probe ILMN_1248714): 8.2139
AVG expression GATA3 (probe ILMN_1248843): 8.224
AVG expression TBX6 (probe ILMN_1249014): 6.934
AVG expression BCL2 (probe ILMN_1249021): 8.748
AVG expression MPO (probe ILMN_1249030): 8.41
AVG expression LOC100046608 (probe ILMN_1249366): 9.365
AVG expression TSSC6 (probe ILMN_1249740): 6.912
AVG expression IGF1R (probe ILMN_1249824): 6.78
AVG expression IGHG (probe ILMN_1249975): 8.895
AVG expression EIF2AK2 (probe ILMN_1250410): 10.06
AVG expression C730026J16 (probe ILMN_1251984): 9.459
AVG expression LYZ2 (probe ILMN_1252076): 8.645
AVG expression LOC100038894 (probe ILMN_1252295): 6.989
AVG expression WDR9 (probe ILMN_1252496): 7.625
AVG expression ACAT2 (probe ILMN_1253008): 9.341
AVG expression HS3ST1 (probe ILMN_1253182): 8.805
AVG expression DAPP1 (probe ILMN_1253354): 8.474
AVG expression WARS (probe ILMN_1254157): 10.36
AVG expression NISCH (probe ILMN_1254218): 10.29
AVG expression 4931429I11RIK (probe ILMN_1254314): 6.757
AVG expression LMNA (probe ILMN_1254405): 8.835
AVG expression AI607873 (probe ILMN_1254577): 7.533
AVG expression ACPL2 (probe ILMN_1254634): 7.573
AVG expression SYPL (probe ILMN_1254669): 10.85
AVG expression EG240327 (probe ILMN_1254685): 7.154
AVG expression LMNA (probe ILMN_1255510): 9.57
AVG expression IL6RA (probe ILMN_1255743): 7.478
AVG expression KLRD1 (probe ILMN_1255860): 8.506
AVG expression LOC100047261 (probe ILMN_1256219): 11.14
AVG expression PML (probe ILMN_1256356): 10.68
AVG expression MCOLN3 (probe ILMN_1256430): 6.748
AVG expression SLC6A12 (probe ILMN_1256644): 6.942
AVG expression LOC100043821 (probe ILMN_1257107): 10.78
AVG expression SLC37A1 (probe ILMN_1257444): 7.908
AVG expression LOC638301 (probe ILMN_1257771): 9.6
AVG expression A130095K04RIK (probe ILMN_1257803): 6.146
AVG expression D230004N01RIK (probe ILMN_1258197): 8.362
AVG expression DOK3 (probe ILMN_1258357): 11.45
AVG expression 5430434G16RIK (probe ILMN_1258364): 8.61
AVG expression LOC100044376 (probe ILMN_1258587): 9.335
AVG expression BC106179 (probe ILMN_1258864): 7.749
AVG expression TMEM66 (probe ILMN_1258965): 10.41
AVG expression NME7 (probe ILMN_1259075): 8.301
AVG expression SCIN (probe ILMN_1259174): 9.64
AVG expression SFT2D2 (probe ILMN_1260046): 10.2783
AVG expression USP18 (probe ILMN_2054914): 8.225
AVG expression ADCY7 (probe ILMN_2163572): 8.002
AVG expression TNFRSF18 (probe ILMN_2419490): 11.07
AVG expression TNFR5F18 (probe ILMN_2419494): 10.8
AVG expression BRWD1 (probe ILMN_2421220): 7.59
AVG expression UBD (probe ILMN_2426853): 8.138
AVG expression XBP1 (probe ILMN_2431237): 12.27
AVG expression LOC100048346 (probe ILMN_2433990): 9.203
AVG expression SCL0002069.1_48 (probe ILMN_2443164): 8.113
AVG expression MACF1 (probe ILMN_2444984): 7.707
AVG expression TNFRSF9 (probe ILMN_2445789): 8.963
AVG expression TNFRSF4 (probe ILMN_2446559): 10.65
AVG expression IBRDC3 (probe ILMN_2447712): 7.79
AVG expression MAP4K2 (probe ILMN_2449150): 9.206
AVG expression DUSP4 (probe ILMN_2450767): 8.696
AVG expression 6720418B01RIK (probe ILMN_2454823): 7.844
AVG expression A830080H07RIK (probe ILMN_2457437): 9.842
AVG expression MAML2 (probe ILMN_2457571): 8.504
AVG expression AHNAK (probe ILMN_2458765): 8.464
AVG expression ADAMTSL4 (probe ILMN_2459899): 8.039
AVG expression WNT10A (probe ILMN_2460094): 7.099
AVG expression BAMBI-PS1 (probe ILMN_2467190): 7.445
AVG expression 1110059G02RIK (probe ILMN_2473692): 6.85
AVG expression 5830411I20 (probe ILMN_2474052): 10.05
AVG expression CPM (probe ILMN_2476452): 6.679
AVG expression 1700052O22R1K (probe ILMN_2481117): 9.816
AVG expression 2210408F11RIK (probe ILMN_2483811): 10.42
AVG expression 2010005O13RIK (probe ILMN_2488997): 9.797
AVG expression PKIB (probe ILMN_2490076): 7.096
AVG expression TRIO (probe ILMN_2491741): 6.611
AVG expression WISP1 (probe ILMN_2492264): 6.711
AVG expression AA536717 (probe ILMN_2492284): 6.484
AVG expression 2310043N10RIK (probe ILMN_2493030): 9.383
AVG expression UGT1A10 (probe ILMN_2493826): 6.49
AVG expression 9430080K19RIK (probe ILMN_2500370): 10.17
AVG expression EG330070 (probe ILMN_2504447): 6.499
AVG expression A130090K04RIK (probe ILMN_2506039): 8.137
AVG expression 7530404M11RIK (probe ILMN_2507761): 7.426
AVG expression NME7 (probe ILMN_2510694): 7.434
AVG expression 1110046J11RIK (probe ILMN_2513451): 10.16
AVG expression 7530408C15RIK (probe ILMN_2517611): 7.035
AVG expression PLA2G12A (probe ILMN_2518483): 6.955
AVG expression 2010016118RIK (probe ILMN_2520264): 7.54
AVG expression 3010031K01RIK (probe ILMN_2522460): 9.234
AVG expression TRIO (probe ILMN_2522750): 8.588
AVG expression 4930597A21RIK (probe ILMN_2524763): 7.674
AVG expression CHI3L4 (probe ILMN_2524865): 7.454
AVG expression LOC240672 (probe ILMN_2531737): 8.095
